23 molecules from patent US10028992B2, “Methods of treating muscular dystrophy” (BOARD OF REGENTS OF THE NEVADA SYSTEM OF HIGHER EDUCATION …, priority 2012, dated 2018) can be followed below.

The test system of this experiment is α7 integrin promoter. Nature of the experiment: muscle cell-based assay: α7βgal+/− myoblasts/myotubes, LacZ reporter, β-galactosidase cleavage of FDG. Also noted: species or system mouse; Results in α7+/− β-galactosidase assay: scale not given here. To be noted: Myoblasts. In outline:
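Primary α7βgal+/− mouse myoblasts (LacZ knocked into α7 integrin exon 1, promoter retained), differentiated; promoter activity read as β-galactosidase conversion of non-fluorescent FDG to fluorescein. Hits followed by dose-response, western analysis and myostatin counterscreen.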

Take `CC(C(=O)Nc1ccc(C#N)cc1)N(C)CC(=O)Nc1cccc(F)c1` (stereo not drawn) [drawing 630]: the “Results in α7+/− β-galactosidase assay” value reads like this: (0.5 uM) 0.01302; (1 uM) −0.06275; (5 uM) 0.01684; (10 uM) 0.1242; (20 uM) −0.01497; (40 uM) −0.1721.
Regarding `CC1Cc2ccccc2N1C(=O)CSc1nnc(N)s1` (stereo not drawn) [drawing 631], the “Results in α7+/− β-galactosidase assay” value (0.5 uM) was 0.1058; the “Results in α7+/− β-galactosidase assay” value (1 uM) was −0.02327; the “Results in α7+/− β-galactosidase assay” value (5 uM) is on record as 0.003792; the “Results in α7+/− β-galactosidase assay” value (10 uM) was determined as 0.1155; the “Results in α7+/− β-galactosidase assay” value (20 uM) is on record as −0.02505; the “Results in α7+/− β-galactosidase assay” value (40 uM) is −0.07326.
In the case of `CC(C)(C)NC(=O)NC(=O)CN1CCN(Cc2ccccc2)CC1` [drawing 632], the “Results in α7+/− β-galactosidase assay” value is, setting by setting: (0.5 uM) 0.1233; (1 uM) −0.06967; (5 uM) −0.04648; (10 uM) 0.1725; (20 uM) −0.02695; (40 uM) −0.05859.
As for `COc1cc(C=O)ccc1OCC(=O)Nc1ccc2c(c1)OCO2` [drawing 633], the “Results in α7+/− β-galactosidase assay” value was 0.04105 (0.5 uM); −0.1736 (1 uM); 0.4398 (5 uM); 0.09536 (10 uM); −0.06607 (20 uM); −0.1156 (40 uM).
In the case of `Cc1ccccc1NC(=O)c1ccc2c(O)c(Sc3ccccc3)c(=O)[nH]c2c1` [drawing 634], the “Results in α7+/− β-galactosidase assay” value is −0.01711 (0.5 uM); −0.1427 (1 uM); 0.008423 (5 uM); −0.03481 (10 uM); −0.0939 (20 uM); −0.1611 (40 uM).
For `Oc1nc(SCc2ccc(Cl)cc2)nc2ccsc12` [drawing 635], the “Results in α7+/− β-galactosidase assay” value by setting is: (0.5 uM) 0.07667; (1 uM) 0.02077; (5 uM) −0.02435; (10 uM) −0.03652; (20 uM) −0.1552; (40 uM) −0.139.
Turning to `CCn1c(=O)c2cc(C(=O)N(C)c3cc(C)ccc3OC)sc2c2ccccc21` [drawing 636], the “Results in α7+/− β-galactosidase assay” value (0.5 uM) is reported as 0.06384; the “Results in α7+/− β-galactosidase assay” value (1 uM) was −0.07654; the “Results in α7+/− β-galactosidase assay” value (5 uM) is reported as −0.2273; the “Results in α7+/− β-galactosidase assay” value (10 uM) was −0.2656; the “Results in α7+/− β-galactosidase assay” value (20 uM) was −0.396; the “Results in α7+/− β-galactosidase assay” value (40 uM) is listed as −0.3923.
`CCOC(=O)C1=C(NC(=O)c2ccc(OC)c(S(=O)(=O)N3CCCCC3C)c2)Nc2ccccc2N=C1CC` (stereo not drawn) [drawing 637]: the “Results in α7+/− β-galactosidase assay” value is reported as 0.1194 (0.5 uM); 0.007377 (1 uM); −0.06112 (5 uM); −0.01618 (10 uM); −0.4913 (20 uM); −0.6556 (40 uM).
As to `O=C(NCc1ccccc1)C(c1c(F)cccc1Cl)N(C(=O)c1csnn1)C1CC1` (stereo not drawn) [drawing 638], the “Results in α7+/− β-galactosidase assay” value is listed as 0.05089 (0.5 uM); −0.04686 (1 uM); −0.06939 (5 uM); −0.1188 (10 uM); 0.4333 (20 uM); −0.4316 (40 uM).
For the molecule `Cc1[nH]c2ccc(F)cc2c1CCN(Cc1ccco1)/C(S)=N/C(C)(C)C` [drawing 639], the “Results in α7+/− β-galactosidase assay” value by setting is: (0.5 uM) 0.1665; (1 uM) 0.002443; (5 uM) −0.08261; (10 uM) −0.1049; (20 uM) −0.2055; (40 uM) −0.2801.
In the case of `c1ccc(-c2cc(-c3nc4ccccc4[nH]3)c3ccccc3n2)cc1` [drawing 640], the “Results in α7+/− β-galactosidase assay” value (0.5 uM) is on record as 0.2113; the “Results in α7+/− β-galactosidase assay” value (1 uM) is reported as 0.0679; the “Results in α7+/− β-galactosidase assay” value (5 uM) is −0.00848; the “Results in α7+/− β-galactosidase assay” value (10 uM) is −0.0409; the “Results in α7+/− β-galactosidase assay” value (20 uM) is 0.08704; the “Results in α7+/− β-galactosidase assay” value (40 uM) is reported as −0.1752.
With `CCC(C)n1nc(O)cc1N` (stereo not drawn) [drawing 641], the “Results in α7+/− β-galactosidase assay” value is reported as 0.2618 (0.5 uM); 0.0875 (1 uM); −0.07378 (5 uM); −0.09102 (10 uM); 0.1389 (20 uM); 0.06802 (40 uM).
Regarding `Cc1ccc(C(=O)N2CCN(S(=O)(=O)N3CCOCC3)CC2)cc1` [drawing 642], the “Results in α7+/− β-galactosidase assay” value by setting is: (0.5 uM) 0.1086; (1 uM) −0.02563; (5 uM) 0.3985; (10 uM) −0.06877; (20 uM) −0.07784; (40 uM) −0.1672.
Regarding `Cc1cccc(NC(=O)CN(C)C(=O)c2ccc(-c3ccc(Cl)cc3)o2)c1` [drawing 643], the “Results in α7+/− β-galactosidase assay” value by setting is: (0.5 uM) −0.0624; (1 uM) −0.00739; (5 uM) −0.04166; (10 uM) −0.109; (20 uM) 0.6807; (40 uM) −0.2589.
Regarding `Cc1ccccc1S(=O)(=O)N1C[C@H]2CON(C)[C@H]2C[C@H]1c1cccc(-c2ccccc2)c1` [drawing 644], the “Results in α7+/− β-galactosidase assay” value is, setting by setting: (0.5 uM) 0.06241; (1 uM) 0.06141; (5 uM) 0.04452; (10 uM) 0.08987; (20 uM) −0.2419; (40 uM) −0.2934.
For the molecule `N#C/C(=C/c1ccc(N2CCOCC2)o1)C(=O)Nc1ccccc1` [drawing 645], the “Results in α7+/− β-galactosidase assay” value is 0.06835 (0.5 uM); 0.1707 (1 uM); 0.1316 (5 uM); 0.05082 (10 uM); 0.07006 (20 uM); 0.03748 (40 uM).
Take `CCOc1ccccc1Nc1cc2n(c(=O)n1)CCc1cc(OC)c(OC)cc1-2` [drawing 646]: the “Results in α7+/− β-galactosidase assay” value (0.5 uM) is reported as −0.02172; the “Results in α7+/− β-galactosidase assay” value (1 uM) came out at 0.002645; the “Results in α7+/− β-galactosidase assay” value (5 uM) is on record as −0.2359; the “Results in α7+/− β-galactosidase assay” value (10 uM) was −0.3859; the “Results in α7+/− β-galactosidase assay” value (20 uM) is −0.7975; the “Results in α7+/− β-galactosidase assay” value (40 uM) is −0.7954.
For `CCOc1ccccc1NC(=O)COC(=O)CNS(=O)(=O)c1ccc(C)cc1` [drawing 648], the “Results in α7+/− β-galactosidase assay” value is, setting by setting: (0.5 uM) 0.03233; (1 uM) 0.05083; (5 uM) −0.02764; (10 uM) −0.06749; (20 uM) −0.1666; (40 uM) −0.1295.
Turning to `Fc1ccc(-c2ccnc3nc(N4CCN(c5ccccc5)CC4)nn23)cc1` [drawing 649], the “Results in α7+/− β-galactosidase assay” value by setting is: (0.5 uM) 0.1594; (1 uM) 0.2225; (5 uM) 0.1641; (10 uM) 0.1229; (20 uM) 0.02594; (40 uM) 0.02675.
On to `CCOc1cc2c3c(c1)C(C)=CC(C)(C)N3C(=O)C2=O` [drawing 650], for which the “Results in α7+/− β-galactosidase assay” value is given as 0.1703 (0.5 uM); 0.1592 (1 uM); −0.1933 (5 uM); −0.4363 (10 uM); −0.8277 (20 uM); −0.8257 (40 uM).
Consider `COc1ccc2c(c1)/C(=C\c1cccc(/C=C3/C(=O)Nc4ccc(OC)cc43)n1)C(=O)N2` [drawing 651], for which the “Results in α7+/− β-galactosidase assay” value is listed as −0.2196 (0.5 uM); −0.4455 (1 uM); −0.825 (5 uM); −0.8112 (10 uM); −0.9441 (20 uM); −0.9511 (40 uM).
As to `C/C(=N\NC(=O)c1cc(C)oc1C)c1ccc2ccccc2c1` [drawing 652], the “Results in α7+/− β-galactosidase assay” value is −0.1564 (0.5 uM); −0.09115 (1 uM); 0.2722 (5 uM); −0.1575 (10 uM); −0.3649 (20 uM); −0.6275 (40 uM).
Regarding `O=C1Nc2ccccc2/C1=C\c1cccn1-c1ccc(OC(F)(F)F)cc1` [drawing 653], the “Results in α7+/− β-galactosidase assay” value is listed as −0.1201 (0.5 uM); 0.155 (1 uM); 0.2721 (5 uM); 0.07821 (10 uM); 0.05267 (20 uM); −0.1116 (40 uM).
